From the supplement of paper PMC13380429

Tests used:
Conditions in all cases: 72 h
Caco-2 [1] = experiment: cell viability relative to DMSO; higher = less toxic
U2OS [2] = experiment: as above
Vero E6 [3] = experiment: as above
Calu-3 [4] = experiment: as above
HepG2 [5] = experiment: as above
Caco-2 [6] = experiment: drug sensitivity score (DSS) for viability; higher = more toxic; extreme values may be limits of the assay
U2OS [7] = experiment: as above
Vero E6 [8] = experiment: as above
Calu-3 [9] = experiment: as above
HepG2 [10] = experiment: as above
Caco-2 [11] = experiment: relative viability EC50 (midpoint between 100% and the lowest measured viability); higher = less toxic
U2OS [12] = experiment: as above
Vero E6 [13] = experiment: as above
Calu-3 [14] = experiment: as above
HepG2 [15] = experiment: as above

| SMILES | cell viability (Caco-2 [1]; 1 nM) | cell viability (Caco-2 [1]; 10 nM) | cell viability (Caco-2 [1]; 100 nM) | cell viability (Caco-2 [1]; 1000 nM) | cell viability (Caco-2 [1]; 10000 nM) | cell viability (U2OS [2]; 1 nM) | cell viability (U2OS [2]; 10 nM) | cell viability (U2OS [2]; 100 nM) | cell viability (U2OS [2]; 1000 nM) | cell viability (U2OS [2]; 10000 nM) | cell viability (Vero E6 [3]; 1 nM) | cell viability (Vero E6 [3]; 10 nM) | cell viability (Vero E6 [3]; 100 nM) | cell viability (Vero E6 [3]; 1000 nM) | cell viability (Vero E6 [3]; 10000 nM) | cell viability (Calu-3 [4]; 1 nM) | cell viability (Calu-3 [4]; 10 nM) | cell viability (Calu-3 [4]; 100 nM) | cell viability (Calu-3 [4]; 1000 nM) | cell viability (Calu-3 [4]; 10000 nM) | cell viability (HepG2 [5]; 1 nM) | cell viability (HepG2 [5]; 10 nM) | cell viability (HepG2 [5]; 100 nM) | cell viability (HepG2 [5]; 1000 nM) | cell viability (HepG2 [5]; 10000 nM) | drug sensitivity score (Caco-2 [6]) | drug sensitivity score (U2OS [7]) | drug sensitivity score (Vero E6 [8]) | drug sensitivity score (Calu-3 [9]) | drug sensitivity score (HepG2 [10]) | relative viability EC50 (Caco-2 [11]) | relative viability EC50 (U2OS [12]) | relative viability EC50 (Vero E6 [13]) | relative viability EC50 (Calu-3 [14]) | relative viability EC50 (HepG2 [15]) |
| --- | --- | --- | --- | --- | --- | --- | --- | --- | --- | --- | --- | --- | --- | --- | --- | --- | --- | --- | --- | --- | --- | --- | --- | --- | --- | --- | --- | --- | --- | --- | --- | --- | --- | --- | --- |
| CC1(C)S[C@@H]2[C@H](NC(=O)[C@H](N)c3ccc(O)cc3)C(=O)N2[C@H]1C(=O)O [amoxicillin] | 85% | 78.5% | 85.4% | 97% | 97.7% | 102% | 103% | 96.2% | 102% | 106% | 101% | 97.8% | 98.2% | 88.2% | 102% | 109% | 110% | 110% | 106% | 96.5% | 99.3% | 106% | 97.3% | 98.2% | 96.4% | 0 | 0 | 0 | 0 | 0 | > 10 µM | > 10 µM | > 10 µM | > 10 µM | > 10 µM |
| Oc1ccc2c3c1O[C@H]1c4[nH]c5c(c4C[C@@]4(O)[C@@H](C2)N(CC2CC2)CC[C@]314)C[C@@]1(O)[C@H]2Cc3ccc(O)c4c3[C@@]1(CCN2CC1CC1)[C@H]5O4 [nor-binaltorphimine] | 97.9% | 90.4% | 100% | 102% | 106% | 103% | 109% | 106% | 98.6% | 99% | 92.5% | 98.3% | 91.2% | 95.7% | 108% | 105% | 99.9% | 100% | 106% | 102% | 93.7% | 108% | 111% | 105% | 99.2% | 0 | 0 | 0 | 0 | 0 | > 10 µM | > 10 µM | > 10 µM | > 10 µM | > 10 µM |
| COc1cc2c(=O)c(-c3ccc(O)cc3)coc2cc1O [glycitein] | 86.4% | 97.3% | 101% | 96% | 94.2% | 98.1% | 99.3% | 102% | 98.2% | 99.5% | 102% | 103% | 98.2% | 99.6% | 94.4% | 92.9% | 99.6% | 101% | 101% | 96.7% | 105% | 103% | 99.2% | 111% | 92.9% | 0 | 0 | 0 | 0 | 0 | > 10 µM | > 10 µM | > 10 µM | > 10 µM | > 10 µM |
| CCC(=O)O[C@]1(C(=O)CO)CC[C@H]2[C@@H]3CCC4=CC(=O)CC[C@]4(C)[C@H]3CC[C@@]21C [CB-03-01] | 99.4% | 103% | 100% | 101% | 101% | 99.9% | 104% | 98.3% | 102% | 97% | 101% | 107% | 101% | 96.8% | 99.6% | 93.7% | 97% | 102% | 109% | 94.9% | 102% | 106% | 90.8% | 95.4% | 96.1% | 0 | 0 | 0 | 0 | 0 | > 10 µM | > 10 µM | > 10 µM | > 10 µM | > 10 µM |
| c1ccc(Oc2nc(NC3CCCCC3)c3[nH]cnc3n2)cc1 [MRS-3777] | 87% | 104% | 99.6% | 109% | 100% | 97.5% | 98.8% | 97.5% | 108% | 103% | 98.7% | 96.2% | 93.5% | 97.2% | 78.2% | 92.7% | 95.7% | 102% | 104% | 101% | 110% | 97.5% | 88.7% | 99.2% | 99.4% | 0 | 0 | 1.1 | 0 | 0 | > 10 µM | > 10 µM | > 10 µM | > 10 µM | > 10 µM |
| CC(=O)N1N=C(c2ccc(N)cc2)c2cc3c(cc2C[C@H]1C)OCO3 [talampanel] | 94.7% | 104% | 94.7% | 96.9% | 98.6% | 99% | 101% | 96.7% | 95.5% | 97.7% | 94% | 95.3% | 95.9% | 95.5% | 97.4% | 98% | 99.6% | 98.2% | 95.6% | 97.3% | 101% | 93.9% | 100% | 107% | 99.7% | 0 | 0 | 0 | 0 | 0 | > 10 µM | > 10 µM | > 10 µM | > 10 µM | > 10 µM |
| COc1cc(C(=S)N2CCOCC2)ccc1O [vanitiolide] | 87.7% | 92.9% | 102% | 106% | 97.6% | 104% | 99.5% | 95.4% | 98.7% | 101% | 97.2% | 91.6% | 93.4% | 95.2% | 105% | 108% | 108% | 99.1% | 98.4% | 104% | 99.8% | 92.8% | 97.2% | 102% | 109% | 0 | 0 | 0 | 0 | 0 | > 10 µM | > 10 µM | > 10 µM | > 10 µM | > 10 µM |
| Cc1nnc(C(C)C)n1C1C[C@H]2CC[C@@H](C1)N2CC[C@H](NC(=O)C1CCC(F)(F)CC1)c1ccccc1 (stereo in doubt) [maraviroc] | 101% | 93.8% | 99.5% | 97.9% | 108% | 99.4% | 95.1% | 100% | 99.7% | 106% | 97.4% | 97.8% | 97.1% | 92.3% | 104% | 107% | 89.8% | 101% | 108% | 114% | 114% | 97.3% | 94.4% | 86.5% | 101% | 0 | 0 | 0 | 0 | 0 | > 10 µM | > 10 µM | > 10 µM | > 10 µM | > 10 µM |
| CC1(C)O[C@@H]2[C@@H](CO[C@@]3(COS(N)(=O)=O)OC(C)(C)O[C@@H]23)O1 [topiramate] | 93.2% | 83.1% | 92.2% | 112% | 98.7% | 98.7% | 94.5% | 98.1% | 105% | 108% | 89.5% | 98.3% | 95.6% | 97.7% | 107% | 110% | 96.6% | 94.8% | 95.2% | 103% | 108% | 96.9% | 91.8% | 95.9% | 94.9% | 0 | 0 | 0 | 0 | 0 | > 10 µM | > 10 µM | > 10 µM | > 10 µM | > 10 µM |
| Cc1cc(Nc2nc(N[C@@H](C)c3ncc(F)cn3)ncc2Cl)[nH]n1 [AZD1480] | 93.2% | 102% | 95.5% | 102% | 84.2% | 99.7% | 102% | 102% | 101% | 97% | 94.3% | 96.2% | 95.9% | 100% | 97.9% | 106% | 91.6% | 99.7% | 96.6% | 90.8% | 98.6% | 101% | 96.5% | 87.9% | 89.4% | 0.2 | 0 | 0 | 0 | 0.7 | > 10 µM | > 10 µM | > 10 µM | > 10 µM | > 10 µM |
| CCOC(=O)c1c(/C(C#N)=C\N)c2ccc(Cl)c(Cl)c2n1C [KH-CB19] | 101% | 93.6% | 103% | 99.2% | 92.4% | 102% | 99.6% | 103% | 96.5% | 107% | 96.2% | 104% | 98.4% | 103% | 92% | 98.2% | 97.7% | 96.6% | 101% | 101% | 99.8% | 105% | 98.7% | 102% | 93.2% | 0 | 0 | 0 | 0 | 0 | > 10 µM | > 10 µM | > 10 µM | > 10 µM | > 10 µM |
| CSc1cc2c(cc1C(F)(F)F)N(C(=O)Nc1cccnc1)CC2 | 103% | 101% | 95.5% | 97.5% | 97.9% | 100% | 99.6% | 108% | 98.9% | 101% | 102% | 104% | 96.5% | 102% | 102% | 106% | 83.3% | 93.2% | 91.2% | 107% | 109% | 95.6% | 85% | 99% | 94.7% | 0 | 0 | 0 | 0 | 0 | > 10 µM | > 10 µM | > 10 µM | > 10 µM | > 10 µM |
| c1ccc2sc(SNC3CCCCC3)nc2c1 [N-cyclohexyl-2-benzothiazolesulfenamide] | 92.5% | 102% | 116% | 101% | 105% | 95.1% | 95% | 100% | 96.6% | 100% | 110% | 106% | 100% | 107% | 87.1% | 105% | 99.6% | 101% | 84% | 94.7% | 97.5% | 105% | 84.2% | 97.4% | 100% | 0 | 0 | 0 | 1.6 | 0 | > 10 µM | > 10 µM | > 10 µM | > 10 µM | > 10 µM |
| C[C@@H](c1ccc2nccn2c1)n1nnc2ncc(-c3cnn(C)c3)nc21 [savolitinib] | 103% | 92.9% | 95.4% | 100% | 91.8% | 101% | 103% | 98.9% | 96.9% | 95.8% | 102% | 102% | 96.5% | 98.9% | 97.4% | 99.3% | 85.2% | 94.4% | 95.5% | 95.3% | 99.5% | 96.2% | 96.8% | 89.4% | 83.4% | 0 | 0 | 0 | 0 | 0.8 | > 10 µM | > 10 µM | > 10 µM | > 10 µM | > 10 µM |
